Results reported in patent publication US5298509A, “Octahydronaphthoquinolizines, and methods of making and using thereof” (priority 1992, dated 1994).
“Also recorded” adds a separate entry of the source. Like-named read-outs stand apart in the source and are kept apart here.

Tests used:
[1] = tested on: sigma versus dopamine D2 receptors; settings: cited from earlier work
[2] = tested on: PCP site; settings: cited from earlier work
[3] = tested on: sigma receptor; settings: cited from earlier work
[4] = tested on: D2 receptor; experiment: Dopamine D2 binding assay, (3H)-spiperone, bovine striatal homogenates
Method: (§1) Radioligand binding assays were performed on the tricyclic (cis-cis) hexahydrojulolidine (HHJ), the parent tetracyclic (cis,cis) OHNQ (I-1) and 9-methoxy OHNQ (I-4), for binding to D2 and sigma receptors synthesized according to Example 1. The D2 assays were performed on bovine striatal homogenates using 0.50 nM (^3 H)-spiperone in the presence of 250 μM ketanserin (to inhibit association with some 5-HT receptors and spirodecanone sites), with non-specific binding defined using 10 μM sulpiride according to known methods. The sigma binding assay was performed on bovine and rat cerebellar homogenates using 2.0 nM (^3 H)-haloperidol in the presence of 25 nM spiperone (to inhibit association with D2 dopamine receptors); non-specific binding was defined in the presence of 1 μM unlabeled haloperidol. […] Sigma receptor assays on rat brain preparations using (^3 H)-DTG and (^3 H)-Pentazocine as the radiolabels are performed with good results. […] Additional assays have been performed for D-1 activity (using (^3 H)-SCH23390), and for α-1 and α-2 activity as well as several 5-HT subtypes (5-HT-1-a, 5-HT-3, 5-HT uptake site).

[5] = target: sigma receptors; experiment: Sigma receptor binding, rat liver preparations
Method: (§2) As a non-limiting subexample, a sigma binding assay can use cerebellar tissue extracts to bind sigma receptor selectively by (^3 H)-halopendol with spiperone used to inhibit-binding to D2 receptors. […] These ligands are incubated at 30° C. with tissue (rat liver, rat cerebellum) homogenates for a 45 min period. In these assays, tissue concentrations used a range from 0.1-0.5 mg protein/mL, and radioligand concentrations range from 50 pM-10 μM. […] Filters are dried and counted for (^3 H)-activity in a liquid scintillation counter. The amount of ligand bound to the tissue receptor is measured with the aid of computer analysis of the data, using the LIGAND or an equivalent algorithm.
(§3) Radioligand binding assays were performed on the tricyclic (cis-cis) hexahydrojulolidine (HHJ), the parent tetracyclic (cis,cis) OHNQ (I-1) and 9-methoxy OHNQ (I-4), for binding to D2 and sigma receptors synthesized according to Example 1. The D2 assays were performed on bovine striatal homogenates using 0.50 nM (^3 H)-spiperone in the presence of 250 μM ketanserin (to inhibit association with some 5-HT receptors and spirodecanone sites), with non-specific binding defined using 10 μM sulpiride according to known methods. The sigma binding assay was performed on bovine and rat cerebellar homogenates using 2.0 nM (^3 H)-haloperidol in the presence of 25 nM spiperone (to inhibit association with D2 dopamine receptors); non-specific binding was defined in the presence of 1 μM unlabeled haloperidol. […] Sigma receptor assays on rat brain preparations using (^3 H)-DTG and (^3 H)-Pentazocine as the radiolabels are performed with good results. […]
(§4) Ten to twenty point assays are performed in triplicate using either 4 nM (^3 H)-haloperidol, 4 nM (^3 H)-DTG or 0.4 nM (^3 H)-DTG (New England Nuclear) as radiolabels, on rat liver, rat cerebellar or bovine cerebellar homogenates. […] Radioactivity is counted the following day at 40% efficiency.

[6] = tested on: 5-HT-2 receptor; experiment: 5-HT-2 receptor activity assay; format: binding
[7] = tested on: sham-feeding rat; experiment: Microstructural analysis of licking/ingestive behavior in the sham-feeding rat; format: in vivo; settings: SKF 5 mg/kg, BMY 4 mg/kg, HAL 0.1 mg/kg, i.p.; for interlick intervals (in words): range 0-250 msec
From the text: Motoric components of the ingestive behavior may be differentiated from the "rewarding", sensory components by the use of microstructural analysis, a computer-controlled device which records the time at which each animal licks, to the nearest fractional millisecond. Analysis of licking and ingestive behavior in bursts is monitored through a fixed time test such that sigma agents may influence ingestive behavior either through the motor output systems or through nigrostriatal dopamine systems. The role for sigma sites in motor output systems include those muscles which are associated with licking, biting, and swallowing.
This consists of the use of a computer-controlled device which records the time at which each animal licks, to the nearest fractional millisecond. This then allows analysis of licking and ingestive behavior in bursts through a 30-minute test.
Using this behavioral assay system, with peripheral administration of the various selective drugs, rats (N=6) received 20% sucrose during a 30-min test, such that there was no effect of the sigma agents (+)-SKF 10,047 (5 mg/kg, i.p.; SKF) or BMY 14802 (4 mg/kg, i.p.; BMY) depending upon the volume of the sucrose solution which was ingested. […] These changes are attributed to a shift in the mean of the distribution histogram of interlick intervals. […] The shift in interlick interval distribution is expected to arise from occupancy of hindbrain sigma sites, possibly in the reticular formation, which are involved in definition of the lick rate in the rat.

[8] = tested on: sham-feeding rat; experiment: Sucrose ingestion (sham intake) in the sham-feeding rat; format: in vivo; settings: 20% sucrose, 30-min test, N=6; for effect on volume of sucrose solution ingested (in words): (+)-SKF 10,047 5 mg/kg i.p., BMY 14802 4 mg/kg i.p., haloperidol 0.1 mg/kg i.p.
From the text: As a non-limiting example, distinguishing between sigma receptor modulation and dopamine modulation may be accomplished using a D2 distinguishing assay, such as a behavioral assay system which discriminates the effects of dopamine D2 antagonists from sigma modulators or agents. A non-limiting example of a D2 /sigma distinguishing assay system involves quantification of ingestion of sucrose in a sham-feeding rat, where dopamine plays a critical role in the mediation of this behavior. See Schneider, L. H. et al. Eur. J. Pharmacol. 186:61-70 (1990) which is entirely incorporated herein by reference. […] The principal factor which compels the animal to maintain ingestion is the sweet taste of the sucrose solution; the involvement of the ascending mesolimbic dopamine system in this effect appears to be manifested as a modulation of the hedonic potency of the orosensory event (sweet taste). […] Neurosci. Abstr. 16:1028 (1990) which references are incorporated entirely herein by reference.
Differentiation of sigma and dopamine activities are provided by a behavioral assay system which effectively discriminates the effects of dopamine D-2 antagonists from sigma agents. The assay system involves quantification of ingestion of sucrose in the sham-feeding rat.

[9] = tested on: dopamine D2 receptor; settings: cited from earlier work
[10] = tested on: sigma receptors; experiment: Sigma binding assay, (3H)-haloperidol, bovine cerebellar homogenates; settings: bovine cerebellar preparation
Method: as §2, §3, §4

[11] = tested on: sigma receptors; experiment: Sigma binding assay, (3H)-haloperidol, rat cerebellar homogenates; settings: for binding to sigma sites (in words): rat cerebellar preparation
Method: as §2, §1
Crude tissue homogenates are prepared by the following general procedure. Frozen tissue is thawed and homogenized in a buffer containing 50 mM Tris-HCI, 120 mM NaCl, 1 mM MgCl2, and 5 mM KCl, pH 8.0. This tissue suspension is sedimented at 100,000×g for a 30 min. period. Following centrifugation, the supernatant is discarded and the resultant pellet is resuspended in the same buffer solution, and respun as previously described.
Ten to twenty point assays are performed in triplicate using either 4 nM (^3 H)-haloperidol, 4 nM (^3 H)-DTG or 0.4 nM (^3 H)-DTG (New England Nuclear) as radiolabels, on rat liver, rat cerebellar or bovine cerebellar homogenates. The concentration of the displacing agent generally ranges between 0.2 nM and 64 μM in a final volume of 2 mL. Non-specific binding is defined by the presence of 1 μM unlabeled haloperidol. Spiperone at a concentration of 25 nM is added in the assays performed with (^3 H)-haloperidol in order to block D2 receptor sites. The buffer system employed is as in the tissue preparation as presented herein. Incubation is carried out for one hour at room temperature after addition of the tissue. Samples are rapidly filtered through Schleicher and Schuell #32 glass filters presoaked with 0.1% polyethyleneimine, on a 24-position cell harvester (Brandel). The filters are washed with ice-cold 10 mM Tris buffer, pH 7.7, and then placed in 2 mL of scintillation fluid. Radioactivity is counted the following day at 40% efficiency.

[12] = tested on: drug-resistant patients; settings: human, in vivo; cited from earlier work
[13] = solubilized rat liver preparations

SMILES: CCCN1CCCC(c2cccc(O)c2)C1 (stereo not drawn) [3-PPP]
- affinity for sigma versus dopaminergic receptors (in words) [1]: higher affinity for sigma receptor sites than for dopaminergic receptors

SMILES: CCN1CCC[C@H]1CNC(=O)c1c(OC)ccc(Br)c1OC [remoxipride]
- affinity toward PCP sites (in words) [2]: little or no affinity
- affinity for sigma receptors (in words) [3]: moderate to high affinity

SMILES: O=C(CCCN1CCC2(CC1)C(=O)NCN2c1ccccc1)c1ccc(F)cc1 [spiperone]
- affinity for sigma receptors (in words) [3]: not spiperone

SMILES: c1ccc2c(c1)CC1CCCN3CCCC2C13 (stereo not drawn) [unsubstituted (trans,trans) OHNQ]
- activity at D-2 receptor sites (in words) [4]: modest but selective activity
- IC50 ([5]; crude liver homogenates): 157 nM
- IC50 [5, 13]: 87 nM
- affinity to sigma receptors (in words) [5, 13]: high affinity
- activity at 5-HT-2 receptor sites (in words) [6]: modest but selective activity

SMILES: COc1ccc2c(c1)C1CCCN3CCCC(C2)C13 (stereo not drawn) [(trans,trans) 11-methoxy OHNQ]
- activity at D-2 receptor sites (in words) [4]: modest but selective activity
- activity at 5-HT-2 receptor sites (in words) [6]: modest but selective activity

SMILES: O=C1CC2(CCCC2)CC(=O)N1CCCCN1CCN(c2nsc3ccccc23)CC1 [tiospirone]
- affinity for sigma receptors (in words) [3]: moderate to high affinity

SMILES: c1ccc(C2(N3CCCCC3)CCCCC2)cc1 [(^3 H)-PCP, phencyclidine]
- affinity for sigma receptors (in words) [3]: not labeled

SMILES: OC(CCCN1CCN(c2ncc(F)cn2)CC1)c1ccc(F)cc1 (stereo not drawn) [BMY 14802]
- affinity toward PCP sites (in words) [2]: little or no affinity
- selectivity for sigma versus dopamine D2 receptors [1]: 10 to 15 fold
- mean lick cluster size (in words) [7]: smaller mean lick cluster size
- interlick intervals (in words) [7]: significant decrease of interlick intervals
- affinity for sigma receptors (in words) [3]: moderate to high affinity
- effect on volume of sucrose solution ingested (in words) [8]: no effect

SMILES: c1csc(C2(N3CCCCC3)CCCCC2)c1 [(^3 H)-TCP, (^3 H)-1-((2-thienyl)cyclohexyl)piperidine]
- affinity for sigma receptors (in words) [3]: not labeled

SMILES: O=C(CCCN1CCC(O)(c2ccc(Cl)cc2)CC1)c1ccc(F)cc1 [haloperidol]
- activity at dopamine D2 receptor (in words) [9]: high affinity
- mean lick cluster size (in words) [7]: not SKF or HAL
- interlick intervals (in words) [7]: not SKF or HAL
- affinity for sigma receptors (in words) [3]: high affinity
- affinity for sigma receptors (in words) ([3]; listed as (^3 H)-haloperidol): labeled with high affinity
- affinity for sigma receptors (in words) ([3]; listed as Haloperidol): very high affinity
- effect on volume of sucrose solution ingested (in words) [8]: highly significant reduction
- sham intake of the sucrose solution ([8]; haloperidol 0.1 mg/kg, i.p., vs 33.7±2.7 ml, p<0.001): 15 ± 2.7 mL

SMILES: C=CCN1CCC2(C)c3cc(O)ccc3CC1C2C (stereo not drawn) [(^3 H)-NANM, N-allylnormetazocine]
- affinity toward PCP sites (in words) [2]: low affinity
- affinity for sigma receptors (in words) [3]: high affinity

SMILES: C[C@@H]1CN(CCCn2c3ccccc3c3ccccc32)C[C@H](C)N1 [rimcazole]
- affinity toward PCP sites (in words) [2]: little or no affinity
- selectivity for sigma versus dopamine D2 receptors [1]: 10 to 15 fold
- affinity for sigma receptors (in words) [3]: moderate to high affinity

SMILES: C1CC2CCCN3CCCC(C1)C23 (stereo not drawn) [HHJ, hexahydrojulolidine]
- binding to sigma sites (in words) [10]: did not exhibit binding
- binding to sigma sites (in words) [11]: did not exhibit binding

SMILES: Cl.N#Cc1cccnc1N1CCN(CCCCN2C(=O)SC3(CCCC3)C2=O)CC1 [BMY 13980]
- affinity for sigma receptors (in words) [3]: moderate to high affinity

SMILES: O=C1CC2(CCCC2)CC(=O)N1CCCCN1CCN(c2ncccn2)CC1 [buspirone]
- affinity for sigma receptors (in words) [3]: high affinity

SMILES: CCCN1CCC[C@H](c2cccc(O)c2)C1 [(+)-(^3 H)-3-PPP, (+)-(^3 H)-3-(+)-3-(3-hydroxyphenyl) N-(1-propyl)piperidine]
- affinity for sigma receptors (in words) [3]: labeled with high affinity

SMILES: Cl.Fc1ccc2[nH]c3c(c2c1)CN(CCCc1cccnc1)CC3 [WY 47,384]
- affinity for sigma receptors (in words) [3]: moderate to high affinity

SMILES: C=CCN1CCC2(C)c3cc(O)ccc3CC1C2C (single isomer, unassigned; (+)) [(+)-SKF 10,047]
- mean lick cluster size (in words) [7]: not SKF or HAL
- interlick intervals (in words) [7]: not SKF or HAL
- enantioselectivity for sigma sites (in words) ([3]; (+)-NANM versus (-)-NANM): more potent than (-)-NANM
- effect on volume of sucrose solution ingested (in words) [8]: no effect

SMILES: CN1CCN(C2=Nc3cc(Cl)ccc3Nc3ccccc32)CC1 [clozapine]
- agranulocytosis / side effects (in words) [12]: irreversible, potentially fatal agranulocytosis in a minority of patients; also recorded: less motor side effects; also recorded: severe and fatal agranulocytosis

SMILES: COc1ccc2c(c1)C1CCCN3CCCC(C2)C13 (stereo not drawn) [11-methoxy OHNQ]
- binding to sigma sites (in words) [10]: weak sigma binding
- IC50 ([10]; 2.0 nM (3H)-haloperidol, 25 nM spiperone): 1500 nM
- sigma potency compared with reference compounds (in words) ([11]; rat cerebellar membranes): on the order of that observed for (+)-NaMM, (+)-3-PPP, as well as cis-fused tricyclic octahydrobenzo-(f) quinolines with hydroxyl groups on the aromatic ring
- IC50 ([11]; rat cerebellar membranes, 2.0 nM (3H)-haloperidol, 25 nM spiperone): 300 nM
- binding to sigma sites (in words) [11]: considerably stronger binding
- sigma binding, rat versus bovine (in words) ([11]; rat cerebellar vs bovine cerebellar receptors): bound more specifically and with a higher affinity to rat cerebellar sigma receptors, than to bovine cerebellar receptors

SMILES: C=CCN1CC[C@]23c4c5ccc(O)c4O[C@H]2C(=O)CC[C@@]3(O)[C@H]1C5 [naloxone]
- block of (3H)-NANM binding (in words) ([3]; typical opiate receptor antagonists): not blocked
